From patent US8367835B2, “Cyclic amine-1-carboxylic acid ester derivative and pharmaceutical composition containing the same” (Dainippon Sumitomo Pharma Co., Ltd., priority 2008, dated 2013)
Where two headings read alike, the source gives them in different places.

Columns and labels:
[1] = system: mechanical hyperalgesia in a neuropathic pain model (rat Chung model); test: Analgesic effect in combination with Pregabalin: von Frey filament test using rat Chung model, i.pl. administration; assay type: in vivo; conditions: for % to pre-administration value: (1) Test compound post-i. pl. administration value: 50 μl of 0.1% (W/V) solution intraplantar to left hindlimb, measured on the following day, test compound alone; for % to pre-administration value: (2) Pregabalin post-oral administration value (Test compound administered on the day before): test compound i.pl. the day before plus Pregabalin 10 mg/kg orally, combined effect
Experimental: The study was conducted using the same methods and evaluation criteria as in Test Example 1 with the exception of the administration route of the test compounds (see Test Example 1).
Using the von Frey filaments the test compound pre-administration values (pressure withdrawal threshold) were measured. Subsequently, 50 μl of a solution containing a test compound or vehicle control was intraplantarly injected to the left hindlimb using a microsyringe (intraplantar injection: i. pl. administration), and on the following day the withdrawal threshold was measured (effect of the test compound alone). Thereafter, 10 mg/kg of Pregabalin was orally administered and an hour later the withdrawal threshold was measured (combined effect).
Pregabalin was dissolved in distilled water. Physiological saline containing Tween 80 and ethanol was used as the vehicle control for the i. pl. administration.
The analgesic effect is a relative ratio when a pre-administration value calculated using the following numerical formula is 100%.

[2] = system: mechanical hyperalgesia in a neuropathic pain model (rat Chung model); test: Analgesic effect: von Frey filament test using rat Chung model, transdermal administration; assay type: in vivo; conditions: 0.1% formulation applied transdermally to plantar surface of left hindlimb once a day for 2 weeks; measured on the day after last administration; pre-administration value = 100%
Experimental: The present test is to measure the analgesic effect based on the improvement level of the mechanical hyperalgesia in a neuropathic pain model as the indicator by transdermally administering the compound of the present invention and was carried out in accordance with the method of Kim and Chung [Pain, 50, 355-363 (1992)] or the method of Tsuda et al. [Nature, 424, 778-783, 2003].
Specifically, using Jcl: Wistar male rat (7 to 9 rats/group, 5 weeks of age at the time of surgery), spinal nerves were injured to induce hyperalgesia and the withdrawal threshold was measured using the von Frey filament. In the surgery, under Pentobarbital anesthesia, the left L5 spinal nerve was exposed, ligated near the spinal cord using a silk suture (5-0) and transected just peripheral to the ligation. After suturing the incision and keeping the rats for 2 weeks, the rats were subjected to the von Frey filament test. The measurement of the mechanical hyperalgesia was carried out by applying von Frey filaments (1.0, 2.0, 4.0, 8.0, 15.0 g) to the plantar surface of the left hindlimb, and the filament intensity at which 50% or higher withdrawal behavior was observed was defined as the withdrawal threshold.
After dissolving the test compounds in a mixture of Tween 80 and ethanol, the obtained solution was mixed with a hydrophilic ointment to prepare a formulation having a concentration of 0.1%. The withdrawal threshold before administering the test compound was measured to define the pre-administration value (100%). Thereafter, once a day, for 2 weeks, the formulation having a concentration of 0.1% was transdermally administered (applied) to the plantar surface of the left hindlimb, the von Frey filament test was carried out on the following day of the last administration to measure the post-administration value. Further, the same formulation as above but free of the test compound was prepared as a vehicle control and the same test was carried out.
The analgesic effect is a relative ratio when a test compound pre-administration value calculated using the following numerical formula is 100%. The pre-administration withdrawal threshold was 3.3±0.1 g (119 cases) (the withdrawal threshold of sham-operated rat was 10 to 15 g). %=(test compound post-administration withdrawal threshold value/pre-administration withdrawal threshold value)×100

[3] = molecular target: T1, TRPV1 (Rattus norvegicus, UniProt O35433); test: TRPV1 agonist activity by intracellular calcium level (FLIPR method); assay type: cell-based; conditions: rat dorsal root ganglion primary culture cells
T1 construct: using cultured rat dorsal root ganglion cells which express TRPV1 abundantly; endogenous in cells; host or cells: primary culture of dorsal root ganglion cells from 7 day old Wistar rat
Source text: The test is to measure the elevation of intracellular calcium level as the indicator of TRPV1 agonist activity of a test compound using cultured rat dorsal root ganglion cells which express TRPV1 abundantly, and carried out in accordance with the method of Jerman et al. (Jerman, J. C. et al., Comparison of effects of anandamide at recombinant and endogenous rat vanilloid receptors. Br J Anaesth, 2002. 89(6): p. 882-7). More specifically, the dorsal root ganglion was removed from a 7 day old Wistar rat, and the cells were isolated by collagenase-trypsin treatment. Subsequently, the primary cells was cultured in a CO2 incubator controlled at 5% CO2 and 37° C. for 2 days. The culture medium used was Neurobasal™ medium supplemented with L-glutamine, nerve growth factor, N-2-Supplement, Penicillin-Streptomycin, 5-Fluoro-2′-deoxyuridine (culture day 1 only) were added to.
FLIPR^TETRA system (Molecular Devices Corp.) was used to measure the intracellular calcium concentration. As an indicator of TRPV1 agonistic activity, the fluorescence intensity elevation was monitored when a test compound is applied to the rat dorsal root ganglion primary culture cells loaded with a calcium-sensitive fluorescent reagent.

[4] = system: micronucleus-containing immature erythrocyte; test: Bone marrow micronucleus test; assay type: in vivo, rat; conditions: subcutaneous, twice every 24 hours, Crl: CD male rats; dosage at which fatal cases start occurring and dosages up thereto
Experimental: Each compound of Examples 2, 16 and 37 dissolved in physiological saline containing ethanol and Tween 80 was subcutaneously administered to Crl: CD male rats twice every 24 hours and micronucleus inducing potential was evaluated.

[5] = system: eye of a Std: ddy male mouse; test: Pungency: eye-wiping test; assay type: in vivo; conditions: 10 μg/ml, one drop to mouse eye, counted every minute up to 5 minutes
Experimental: The test is to examine the pungency of the compound of the present invention, and was carried out in accordance with the method by Jancso et al. [Acta. Physiol. Acad. Sci. Hung., 19, 113-131 (1961)] and the method by Szallasi et al. [Brit. J. Pharmacol., 119, 283-290 (1996)]. Specifically, the test compounds were dissolved in physiological saline containing 5% Tween 80 and 5% ethanol to give each (10 or 30 μg/ml) concentration, and one drop of the obtained solution was applied to the eye of a Std: ddy male mouse (5 mice per group, body weight 20 to 30 g) and the number of the protective wiping behavior with the front paws was counted every minute up to 5 minutes after the administration. Then, the average counts in each minute was calculated and the maximum number was defined as the representative value. Further, as vehicle control, the same test was carried out using physiological saline containing 5% Tween 80 and 5% ethanol.

[6] = 1 μM, read-out: Value (%) when fluorescence intensity for capsaicin (1 μM) is 100%
[7] = read-out: Value (%) when fluorescence intensity for capsaicin (1 μM) is 100%, 1 μM

T1 sequence (O35433 whole entry): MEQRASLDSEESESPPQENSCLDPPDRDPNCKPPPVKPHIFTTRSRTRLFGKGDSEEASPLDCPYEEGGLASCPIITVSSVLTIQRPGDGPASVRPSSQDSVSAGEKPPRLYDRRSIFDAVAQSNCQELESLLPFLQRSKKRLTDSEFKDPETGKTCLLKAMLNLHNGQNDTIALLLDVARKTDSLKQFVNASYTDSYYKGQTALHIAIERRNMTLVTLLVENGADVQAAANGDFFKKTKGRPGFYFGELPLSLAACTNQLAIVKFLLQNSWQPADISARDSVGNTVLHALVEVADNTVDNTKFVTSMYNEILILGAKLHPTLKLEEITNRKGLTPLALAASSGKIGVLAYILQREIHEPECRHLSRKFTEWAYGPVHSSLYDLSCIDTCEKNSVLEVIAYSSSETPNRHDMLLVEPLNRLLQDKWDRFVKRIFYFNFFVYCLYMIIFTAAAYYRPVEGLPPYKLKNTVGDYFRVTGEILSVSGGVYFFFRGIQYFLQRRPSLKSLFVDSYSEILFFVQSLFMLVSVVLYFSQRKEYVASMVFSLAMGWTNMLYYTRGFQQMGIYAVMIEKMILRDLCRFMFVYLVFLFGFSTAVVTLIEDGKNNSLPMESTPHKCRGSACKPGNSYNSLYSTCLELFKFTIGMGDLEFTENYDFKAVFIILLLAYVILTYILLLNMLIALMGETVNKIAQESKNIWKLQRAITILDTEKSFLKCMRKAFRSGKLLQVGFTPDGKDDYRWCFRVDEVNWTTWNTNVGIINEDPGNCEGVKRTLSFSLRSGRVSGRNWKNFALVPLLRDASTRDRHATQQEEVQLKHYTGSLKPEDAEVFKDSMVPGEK

SMILES: COc1cc(CNC(=O)C2CCN(C(=O)O[C@@H]3CCCC[C@@H]3C)CC2)ccc1O [Example 37, (1R,2S)-2-methylcyclohexyl 4-(4-hydroxy-3-methoxybenzylcarbamoyl)-piperidine-1-carboxylate]
- % to pre-administration value: (1) Test compound post-i. pl. administration value [1]: 169%
- % to pre-administration value: (2) Pregabalin post-oral administration value (Test compound administered on the day before) ([1]; measured an hour later): 219%
- % to pre-administration value (withdrawal threshold) [2]: 236%
- Value (%) when fluorescence intensity for capsaicin (1 μM) is 100% ([3]; 1 μM): 101%
- micronucleus inducing potential [4]: no micronucleus inducing potential

SMILES: COc1cc(CNC(=O)CCCC/C=C/C(C)C)ccc1O [Capsaicin, (E)-8-methyl-N-vanillyl-6-nonenamide, reference compound]
- Representative value of the counts of protective wiping behavior (Maximum counts, counts/min) [5]: 20.0 counts/min
- Representative value of the counts of protective wiping behavior (Maximum counts, counts/min) ([5]; listed as capsaicin): vigorous wiping behavior was observed
- % to pre-administration value (withdrawal threshold) [2]: 228%
- Value (%) when fluorescence intensity for capsaicin (1 μM) is 100% ([3]; 1 μM): 100%

SMILES: COc1cc(CNC(=O)C2CCN(C(=O)OC3CCC(C)(C)CC3)CC2)ccc1O [Example 8]
- % to pre-administration value: (1) Test compound post-i. pl. administration value [1]: 197%
- % to pre-administration value: (2) Pregabalin post-oral administration value (Test compound administered on the day before) ([1]; measured an hour later): 244%
- melting point: 111 °C
- % to pre-administration value (withdrawal threshold) [2]: 191%
- Emax at 1 µM [3, 6]: 96%

SMILES: CCC1(CC)CCC(OC(=O)N2CC(C(=O)NCc3ccc(O)c(OC)c3)C2)CC1 [Example 14, 4,4-diethylcyclohexyl 3-(4-hydroxy-3-methoxybenzylcarbamoyl)-azetidine-1-carboxylate]
- % to pre-administration value (withdrawal threshold) [2]: 241%
- Emax at 1 µM [3, 6]: 78%

SMILES: COc1cc(CNC(=O)C2CN(C(=O)O[C@H]3CC[C@@H](C(C)(C)C)CC3)C2)ccc1O [Example 16]
- % to pre-administration value: (1) Test compound post-i. pl. administration value [1]: 200%
- % to pre-administration value: (2) Pregabalin post-oral administration value (Test compound administered on the day before) ([1]; measured an hour later): 223%
- % to pre-administration value (withdrawal threshold) [2]: 218%
- Emax at 1 µM [3, 7]: 84%
- micronucleus inducing potential [4]: no micronucleus inducing potential

SMILES: CC(C)C[C@H](CN)CC(=O)O [Pregabalin, reference compound]
- % to pre-administration value: (2) Pregabalin post-oral administration value (vehicle control administered on the day before) ([1]; vehicle i.pl. the day before, Pregabalin 10 mg/kg orally, measured an hour later, Pregabalin alone): 125%

SMILES: CC[C@H]1CC[C@H](OC(=O)N2CCC(C(=O)NCc3ccc(O)c(OC)c3)CC2)CC1 [Example 2]
- Emax at 1 µM [3, 7]: 84%
- micronucleus inducing potential [4]: no micronucleus inducing potential
